Test results as given in patent US9513294B2, “Megastokes amino-triazolyl-BODIPY compounds and applications to live neuron staining and human serum albumin FA1 drug site probing” (National University of Singapore, priority 2012, dated 2016).
Each block holds one compound with its values, some of them ahead of it.

What was measured:
[1] = Absorbance and fluorescence emission spectra (SpectraMax M2); format: physicochemical; conditions: for λmax Abs. (nm) / λmax Em. (nm): MKAC compound library; for λmax Abs. (nm) / λmax Absorp. (nm): absorbance maximum; for λmax Em. (nm) / λmax Emission (nm): fluorescence emission maximum; for λmax Absorp. (nm) / λmax Emission (nm): MKCA compound library
Method: BDC-8 (Blue): absorbance λmax=473 nm, emission λmax=585 nm; MK101-8 (Green): absorbance λmax=474 nm, emission λmax=563 nm; MKHA374-48 (Yellow): absorbance λmax=468 nm, λem=557 nm. The corresponding spectra of a reported BODIPY (BD-27; Red) are also included for comparison: absorbance λmax=551 nm, emission λmax=568 nm. The structures of BDC-8, MK101-8, MKHA374-48 and BD-27 are also depicted.
(§1) ^1H-NMR, ^19F-NMR and ^13C-NMR spectra were recorded on Bruker ACF300 (300 MHz), DPX300 (300 MHz) and AMX500 (500 MHz) spectrometers. High resolution mass spectra (ESI) were obtained on a Finnigan/MAT 95XL-T spectrometer. Spectroscopic and quantum yield data were measured on a SpectraMax M2 spectrophotometer (Molecular Devices). Data analysis was performed using GraphPrism 5.0. Analytical characterization was performed on a HPLC-MS (Agilent-1200 series) with a DAD detector and a single quadrupole mass spectrometer (6130 series) with an ESI probe. Analytical HPLC method: eluents, A: H2O (0.1% HCOOH), B: CH3CN (0.1% HCOOH), gradient 5% B to 95% B (10 min). Reverse-phase Phenomenex C18 Luna column (4.6×50 mm^2, 3.5 […]), flow rate: 1 mL/min.

[2] = Quantum yield measurements versus Acridine Yellow in EtOH; format: physicochemical; conditions: for φ (%): quantum yield; for φ (quantum yield): excitation 460 nm
Method: as §1
Quantum yields were calculated by measuring the integrated emission area of the fluorescent spectra and comparing to the area measured for Acridine Yellow in EtOH when excited at 460 nm (Φfluorescence^AcridineYellow=0.47). Quantum yields for the amino-triazolyl-BODIPYs were calculated using the equation below, where F represents the area of fluorescent emission, η is the refractive index of the solvent, and Abs is absorbance at the excitation wavelength selected for standards and samples. Emission was integrated between 510 and 700 nm.

λmax Abs. (nm) [1]: 462 nm
λmax Em. (nm) [1]: 566 nm
φ (%) ([2]; MKAC compound library): 2.00%
SMILES: CCCCCC(O)c1cn(-c2ccc3n2[B-](F)(F)[N+]2=C(N4CCCC4)C=CC2=C3c2ccc(NC(C)=O)cc2)nn1 (racemic) [MKAC215-69]

λmax Absorp. ([1]; MK library, Table 5): 471 nm
λmax Emission ([1]; MK library, Table 5): 583 nm
φ (quantum yield) ([2]; MK library, Table 5): 0.24%
SMILES: CN(Cc1ccccc1)Cc1cn(-c2ccc3n2[B-](F)(F)[N+]2=C(N4CCCC4)C=CC2=C3c2ccc(N)cc2)nn1 [MK215-18]

λmax Absorp. ([1]; BDCCA library, Table 4): 464 nm
λmax Emission ([1]; BDCCA library, Table 4): 586 nm
φ (quantum yield) ([2]; BDCCA library, Table 4): 1.1%
SMILES: COc1ccc2cc(-c3cn(-c4ccc5n4[B-](F)(F)[N+]4=C(N6CCCCC6)C=CC4=C5c4ccc(NC(=O)CCl)cc4)nn3)ccc2c1 [BDCCA-22]

λmax Absorp. ([1]; MK library, Table 5): 474 nm
λmax Emission ([1]; MK library, Table 5): 565 nm
φ (quantum yield) ([2]; MK library, Table 5): 0.33%
SMILES: COc1ccc(OC)c(CNC2=[N+]3C(=C(c4ccc(N)cc4)c4ccc(-n5cc(CC6CCCCC6)nn5)n4[B-]3(F)F)C=C2)c1 [MK181-8]

λmax Abs. (nm) [1]: 462 nm
λmax Em. (nm) [1]: 567 nm
φ (%) ([2]; MKAC compound library): 3.41%
SMILES: CC(=O)Nc1ccc(C2=C3C=CC(N4CCCC4)=[N+]3[B-](F)(F)n3c2ccc3-n2cc(CCc3ccccc3)nn2)cc1 [MKAC215-19]

λmax Absorp. ([1]; MK library, Table 5): 480 nm
λmax Emission ([1]; MK library, Table 5): 582 nm
φ (quantum yield) ([2]; MK library, Table 5): 0.14%
SMILES: CC(C)Cc1cn(-c2ccc3n2[B-](F)(F)[N+]2=C(N4CCc5ccccc5C4)C=CC2=C3c2ccc(N)cc2)nn1 [MK66-43]

λmax Absorp. ([1]; BDCAC library, Table 3): 468 nm
λmax Emission ([1]; BDCAC library, Table 3): 581 nm
φ (quantum yield) ([2]; BDCAC library, Table 3): 0.8%
SMILES: CCCCCCCCc1cn(-c2ccc3n2[B-](F)(F)[N+]2=C(N4CCCCC4)C=CC2=C3c2ccc(NC(C)=O)cc2)nn1 [BDCAC-44]

λmax Absorp. ([1]; BDC library, Table 2): 478 nm
λmax Emission ([1]; BDC library, Table 2): 595 nm
φ (quantum yield) ([2]; BDC library, Table 2): 0.09%
SMILES: Nc1ccc(C2=C3C=CC(N4CCCCC4)=[N+]3[B-](F)(F)n3c2ccc3-n2cc(C3(O)CCCC3)nn2)cc1 [BDC-67]

λmax Absorp. ([1]; BDCCA library, Table 4): 462 nm
λmax Emission ([1]; BDCCA library, Table 4): 581 nm
φ (quantum yield) ([2]; BDCCA library, Table 4): 0.7%
SMILES: O=C(CCl)Nc1ccc(C2=C3C=CC(N4CCCCC4)=[N+]3[B-](F)(F)n3c2ccc3-n2cc(-c3ccc(F)c(F)c3)nn2)cc1 [BDCCA-16]

λmax Abs. (nm) [1]: 463 nm
λmax Em. (nm) [1]: 574 nm
φ (%) ([2]; MKAC compound library): 1.00%
SMILES: CC(=O)Nc1ccc(C2=C3C=CC(N4CCCC4)=[N+]3[B-](F)(F)n3c2ccc3-n2cc(C3CCCC3)nn2)cc1 [MKAC215-5]

λmax Absorp. ([1]; BDC library, Table 2): 476 nm
λmax Emission ([1]; BDC library, Table 2): 594 nm
φ (quantum yield) ([2]; BDC library, Table 2): 0.08%
SMILES: Nc1ccc(C2=C3C=CC(N4CCCCC4)=[N+]3[B-](F)(F)n3c2ccc3-n2cc(CCc3ccccc3)nn2)cc1 [BDC-19]

λmax Absorp. ([1]; BDC library, Table 2): 473 nm
λmax Emission ([1]; BDC library, Table 2): 585 nm
absorbance λmax ([1]; FIG. 2 normalized spectra): 473 nm
emission λmax ([1]; FIG. 2 normalized spectra): 585 nm
φ (quantum yield) ([2]; BDC library, Table 2): 0.24%
SMILES: Nc1ccc(C2=C3C=CC(N4CCCCC4)=[N+]3[B-](F)(F)n3c2ccc3-n2cc(CC3CCCCC3)nn2)cc1 [BDC-8]

More lines, now with the values behind:

SMILES: CC(=O)Nc1ccc(C2=C3C=CC(NCc4cc(F)cc(F)c4)=[N+]3[B-](F)(F)n3c2ccc3-n2cc(CO)nn2)cc1 [MKAC412-70]
λmax Abs. (nm) [1]: 461 nm
λmax Em. (nm) [1]: 561 nm
φ (%) ([2]; MKAC compound library): 3.96%

SMILES: CC(=O)Nc1ccc(C2=C3C=CC(NCc4ccccc4C)=[N+]3[B-](F)(F)n3c2ccc3-n2cc(C3CC3)nn2)cc1 [MKAC101-4]
λmax Abs. (nm) [1]: 465 nm
λmax Em. (nm) [1]: 563 nm
φ (%) ([2]; MKAC compound library): 23.84%

SMILES: CC(=O)Nc1ccc(C2=C3C=CC(N(C)Cc4ccccc4)=[N+]3[B-](F)(F)n3c2ccc3-n2cc(C3CCCC3)nn2)cc1 [MKAC195-5]
λmax Abs. (nm) [1]: 467 nm
λmax Em. (nm) [1]: 578 nm
φ (%) ([2]; MKAC compound library): 4.18%

SMILES: CCCC(C)c1cn(-c2ccc3n2[B-](F)(F)[N+]2=C(N4CC(C)OC(C)C4)C=CC2=C3c2ccc(NC(C)=O)cc2)nn1 (centres unmarked) [MKAC20-3]
λmax Abs. (nm) [1]: 466 nm
λmax Em. (nm) [1]: 583 nm
φ (%) ([2]; MKAC compound library): 2.40%

SMILES: CCCC(C)c1cn(-c2ccc3n2[B-](F)(F)[N+]2=C(NCc4cc(F)cc(F)c4)C=CC2=C3c2ccc(NC(C)=O)cc2)nn1 (centres unmarked) [MKAC412-3]
λmax Abs. (nm) [1]: 466 nm
λmax Em. (nm) [1]: 561 nm
φ (%) ([2]; MKAC compound library): 27.73%

SMILES: CC1CN(C2=[N+]3C(=C(c4ccc(N)cc4)c4ccc(-n5cc(CN(C)Cc6ccccc6)nn5)n4[B-]3(F)F)C=C2)CC(C)O1 (centres unmarked) [MK20-18]
λmax Absorp. ([1]; MK library, Table 5): 477 nm
λmax Emission ([1]; MK library, Table 5): 582 nm
φ (quantum yield) ([2]; MK library, Table 5): 0.23%

SMILES: CCCc1cn(-c2ccc3n2[B-](F)(F)[N+]2=C(NCc4ccccc4OCC)C=CC2=C3c2ccc(NC(C)=O)cc2)nn1 [MKAC103-48]
λmax Abs. (nm) [1]: 466 nm
λmax Em. (nm) [1]: 562 nm
φ (%) ([2]; MKAC compound library): 20.07%

SMILES: CN(Cc1ccccc1)C1=[N+]2C(=C(c3ccc(N)cc3)c3ccc(-n4cc(CO)nn4)n3[B-]2(F)F)C=C1 [MK195-70]
λmax Absorp. ([1]; MK library, Table 5): 475 nm
λmax Emission ([1]; MK library, Table 5): 592 nm
φ (quantum yield) ([2]; MK library, Table 5): 0.27%

SMILES: COc1ccc(OC)c(CNC2=[N+]3C(=C(c4ccc(NC(=O)CCl)cc4)c4ccc(-n5cc(C6CC6)nn5)n4[B-]3(F)F)C=C2)c1 [MKCA181-4]
λmax Absorp. (nm) [1]: 464 nm
λmax Emission (nm) [1]: 566 nm
φ (%) ([2]; MKCA compound library): 19.35%

SMILES: CCCc1cn(-c2ccc3n2[B-](F)(F)[N+]2=C(N4CCc5ccccc5C4)C=CC2=C3c2ccc(NC(=O)CCl)cc2)nn1 [MKCA66-48]
λmax Absorp. (nm) [1]: 469 nm
λmax Emission (nm) [1]: 584 nm
φ (%) ([2]; MKCA compound library): 3.18%

SMILES: CCCc1cn(-c2ccc3n2[B-](F)(F)[N+]2=C(N(C)Cc4ccccc4)C=CC2=C3c2ccc(NC(C)=O)cc2)nn1 [MKAC195-48]
λmax Abs. (nm) [1]: 467 nm
λmax Em. (nm) [1]: 575 nm
φ (%) ([2]; MKAC compound library): 2.72%

SMILES: CC1CN(C2=[N+]3C(=C(c4ccc(NC(=O)CCl)cc4)c4ccc(-n5cc(CCc6ccccc6)nn5)n4[B-]3(F)F)C=C2)CC(C)O1 (centres unmarked) [MKCA20-19]
λmax Absorp. (nm) [1]: 467 nm
λmax Emission (nm) [1]: 583 nm
φ (%) ([2]; MKCA compound library): 5.32%

SMILES: CCCCCC(O)c1cn(-c2ccc3n2[B-](F)(F)[N+]2=C(NCc4ccccc4OCC)C=CC2=C3c2ccc(NC(=O)CCl)cc2)nn1 (centres unmarked) [MKCA103-69]
λmax Absorp. (nm) [1]: 465 nm
λmax Emission (nm) [1]: 562 nm
φ (%) ([2]; MKCA compound library): 33.49%

SMILES: COc1ccc(OC)c(CNC2=[N+]3C(=C(c4ccc(NC(C)=O)cc4)c4ccc(-n5cc(CC6CCCCC6)nn5)n4[B-]3(F)F)C=C2)c1 [MKAC181-8]
λmax Abs. (nm) [1]: 465 nm
λmax Em. (nm) [1]: 564 nm
φ (%) ([2]; MKAC compound library): 13.98%

SMILES: CCCc1cn(-c2ccc3n2[B-](F)(F)[N+]2=C(NCc4ccccc4OCC)C=CC2=C3c2ccc(N)cc2)nn1 [MK103-48]
λmax Absorp. ([1]; MK library, Table 5): 473 nm
λmax Emission ([1]; MK library, Table 5): 563 nm
φ (quantum yield) ([2]; MK library, Table 5): 1.91%

SMILES: CCCCCC(O)c1cn(-c2ccc3n2[B-](F)(F)[N+]2=C(N4CCc5ccccc5C4)C=CC2=C3c2ccc(NC(C)=O)cc2)nn1 (centres unmarked) [MKAC66-69]
λmax Abs. (nm) [1]: 469 nm
λmax Em. (nm) [1]: 579 nm
φ (%) ([2]; MKAC compound library): 1.88%

SMILES: CC(=O)Nc1ccc(C2=C3C=CC(NCc4ccccc4C)=[N+]3[B-](F)(F)n3c2ccc3-n2cc(CCc3ccccc3)nn2)cc1 [MKAC101-19]
λmax Abs. (nm) [1]: 464 nm
λmax Em. (nm) [1]: 560 nm
φ (%) ([2]; MKAC compound library): 23.26%

SMILES: CN(Cc1ccccc1)C1=[N+]2C(=C(c3ccc(N)cc3)c3ccc(-n4cc(C5CCCC5)nn4)n3[B-]2(F)F)C=C1 [MK195-5]
λmax Absorp. ([1]; MK library, Table 5): 477 nm
λmax Emission ([1]; MK library, Table 5): 579 nm
φ (quantum yield) ([2]; MK library, Table 5): 0.39%
